Assay results from paper doi:10.1101/2024.07.10.602890, “H105A peptide eye drops promote photoreceptor survival in murine and human models of retinal degeneration” (bioRxiv, 2024).
Ends that are not written are not given here.

Test system: rd10 and rd10/Serpinf1−/− mice
Experiment: Retinal histology (H&E), OS length and ONL thickness spider plots after peptide eye drops
Type: in vivo, mouse
Details: for outer nuclear layer (ONL) thickness vs vehicle-treated or untreated eyes / photoreceptor outer segment (OS) length vs vehicle-treated or untreated eyes / ONL thickness (spider plots): daily eye drops 1 mg/ml, P21; for outer nuclear layer (ONL) thickness vs vehicle-treated or untreated eyes / photoreceptor outer segment (OS) length vs vehicle-treated or untreated eyes: rd10 and rd10/Serpinf1−/− mice; for ONL thickness (spider plots): rd10 mice only
Procedure: Fig. 4: Effect of eyedrops of 17-mer and H105A peptides on photoreceptor morphology of rd10 and rd10/Serpinf1−/− mice (A and B) Histological Evaluation. Representative microphotographs of retina sections from rd10 (A) and rd10/Serpinf1−/− (B) mice treated with 17-mer, H105A, or R99A peptides at 1 mg/ml, or with vehicle (HBSS), compared to wild type C57Bl/6J mice. Sections were stained with hematoxylin and eosin. Spider Plot illustrate the thickness of the outer nuclear layer (ONL) in rd10 (C) and rd10/Serpinf1−/− (D) mice. Five retinas per group were analyzed and each data point represents the average ± SEM per location relative to the optic nerve (ON), analyzed using One-way ANOVA. Statistics for comparisons between H105A and vehicle is indicated by #p < 0.05, #p < 0.05, ##p < 0.01, ###p < 0.001). Statistics for comparisons between H105A and 17-mer is indicated by *p < 0.05. Scale bar = 50 μm.
Both eyes were oriented before enucleation to allow sectioning along the dorsal/ventral axis. Enucleated eyes from rd10 and rd10 × Serpinf1^−/− mice were incised in the cornea and fixed in 2.5% glutaraldehyde for 20 min and then in 10% neutral buffered formalin at 4°C for at least 48 h, followed by paraffin embedding, sectioning, and staining with either H&E or immunofluorescence procedures, as previously described ([28]). For fluorescence microscopy, antibodies, and 0.1 μg/ml DAPI were used to immunostain and nuclei counterstain the sections, respectively. Antibodies used in the study are in Table S3. Images were acquired using a ZEIS 700 confocal microscope. Fluorescence intensity was quantified using ImageJ as previously described ([14], [26]).
To generate spider plots, the ONL thickness was measured from images acquired with light microscopy of the retina sections stained with H&E or images of retina sections stained with DAPI with a dorsal-ventral orientation. The ONL thickness in the entire retina sections was measured at 5 different positions from both sides of the optic nerve (ON) using ImageJ, as described before ([28]). Alternatively, for DAPI stained images, a customed macro implemented in ImageJ was used to select only the ONL.
Figure S2. Effects of extending the timeline or administering eye drops of 17-mer[H105A] peptide every other day in rd10 mic e.
Eye drops of H105A peptide solution were administered to r d1 0 mice either daily (Fig. S2A) or every other day (Fi g. S 2D). A total of 5 µl of a solution containing H105A peptide at 1 mg/ml in HBSS were applied as eye drops. The vehicle HBSS was added as eye drops in the contralateral eyes. […]
ONL thickness in r d10 mice compared to vehicle was also observed (Fi g. S 2E), with an improvement in a- […]
efficacy of peptide H105A eye drops either daily or every other day in an extended timeline to stabilize photoreceptor morphology and light response function loss in r d10 mice, however, these were less efficacious than daily H105A peptide eye drops.
(A) Scheme showing a timeline of peptide administration via daily eye drops of H105A peptide to r d10 mice between P15 and P2 4. […]
(B) Representative microphotographs of retinal cross sections of r d1 0 treated as in Fig. S2A and stained with hematoxylin and eosin are shown. […]
(D) Scheme showing a timeline of peptide administration via eye drops of H105A peptide to rd10 mice starting at P15 every other day until P23. Assays were at P25.
(E) Representative microphotographs of retinal cross sections of r d1 0 treated as in Fig. S2D and stained […]
average ± SD per location relative to the ON per genotype by unpaired t-test. *p < 0.05, […]
(F) ERG of r d1 0 mice at P25 and treated as in Fig. S2D were performed in response to a STR. […]

Sequence | outer nuclear layer (ONL) thickness vs vehicle-treated or untreated eyes | photoreceptor outer segment (OS) length vs vehicle-treated or untreated eyes | ONL thickness (spider plots) | ONL thickness (rd10 mice, daily eye drops 5 μl of 1 mg/ml P15 until P24, assayed at P25) | ONL thickness compared to vehicle (rd10 mice, eye drops every other day P15 until P23, assayed at P25)
QRTESIIARALYYDLIS [H105A] | thicker outer nuclear layer | longer OS | to almost wild-type levels | rescue in the ONL thickness | rescue
QRTESIIHRALYYDLIS [17-mer] | thicker outer nuclear layer | longer OS | restored ONL thickness | – | –
